Laboratory results taken from US12571052B2, “Immunomodulatory RNA” (THE TRUSTEES OF THE UNIVERSITY OF PENNSYLVANIA, priority 2017, dated 2026).
Entries after “also recorded” stand apart in the source; their conditions may differ.

T1: recombinant RIG-I (Homo sapiens, UniProt O95786)
T1 sequence (O95786 1-925): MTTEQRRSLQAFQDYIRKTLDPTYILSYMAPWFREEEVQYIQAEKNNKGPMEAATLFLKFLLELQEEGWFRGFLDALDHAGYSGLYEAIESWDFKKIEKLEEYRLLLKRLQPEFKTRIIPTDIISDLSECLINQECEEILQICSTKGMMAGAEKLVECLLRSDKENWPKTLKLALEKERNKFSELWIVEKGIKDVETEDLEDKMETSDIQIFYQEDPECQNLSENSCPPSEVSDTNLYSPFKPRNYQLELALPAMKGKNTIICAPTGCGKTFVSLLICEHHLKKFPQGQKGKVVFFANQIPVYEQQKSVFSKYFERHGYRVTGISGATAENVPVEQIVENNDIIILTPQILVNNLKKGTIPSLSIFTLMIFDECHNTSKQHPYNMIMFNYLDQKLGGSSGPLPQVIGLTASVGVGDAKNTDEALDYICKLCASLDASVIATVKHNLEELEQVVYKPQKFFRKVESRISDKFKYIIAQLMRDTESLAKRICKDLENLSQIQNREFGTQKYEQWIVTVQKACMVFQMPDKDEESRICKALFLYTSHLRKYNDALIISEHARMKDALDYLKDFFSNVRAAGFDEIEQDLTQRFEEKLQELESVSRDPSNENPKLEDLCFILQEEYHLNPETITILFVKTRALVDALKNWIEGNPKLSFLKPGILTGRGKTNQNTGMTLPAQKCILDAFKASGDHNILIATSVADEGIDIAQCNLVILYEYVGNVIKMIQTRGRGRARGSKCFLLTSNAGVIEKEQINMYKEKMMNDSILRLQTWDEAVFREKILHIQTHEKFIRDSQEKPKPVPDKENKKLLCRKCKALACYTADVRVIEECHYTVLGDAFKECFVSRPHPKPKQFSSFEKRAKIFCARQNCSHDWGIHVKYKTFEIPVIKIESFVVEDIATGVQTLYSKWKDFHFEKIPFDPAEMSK

B1: SRP9: Recombinant SRP9 protein, GST tag cleaved with TEV protease (protein, UniProt P49458 2-86, looked up)
Signal recognition particle 9 …: PQYQTWEEFSRAAEKLYLADPMKARVVLKYRHSDGNLCVKVTDDLVCLVYKTDQAQDVKKIEKFHSQLMRLMVAKEARNVTMETE

Assays:
B16-F10 tumor cells [1] = assay: B16-F10/MEF co-implantation, tumor immune populations by flow cytometry; assay type: in vivo, C57BL/6 mice
Procedure: Mice were implanted with tumors as described FIGS. 25A-25B. Tumors were harvested 13 days later and assessed for infiltration of macrophages or myeloid derived suppressor cells (MDSCs). Macrophages are considered Lin−, F4/80+, and CD11b+ cells. MDSCs are considered Lin−, F4/80−, CD11c−, CD11b+, and Ly6C+ cells. Tumors were treated with anti-CTLA4 blocking antibody (FIG. 26D) as described in FIGS. 25A and 25B, and tumors were harvested at d15 to measure M2 polarization of macrophages as marked by CD206.
Furthermore, mice were implanted with the same tumors and subsequently treated with the CSF1R inhibitor BLZ945. Polarization of macrophages and frequency of CD103+DCs were tested.
In addition, mice were implanted with tumors and treated with anti-CTLA4+/−CSF1Ri BLZ945. Tumors were harvested 13 days later and immune populations were assessed using an unbiased clustering of flow cytometry data.
Mice were implanted with B16-F10 tumor cells mixed 1:1 with MEFs or MEFs co-expressing SRP9/14 (FIG. 35B). Tumors were harvested 2 weeks post-injection and analyzed for immune cell populations. Unshielded RN7SL1 increased the frequency of dendritic cells, the percentage of CD103+ dendritic cells, the percentage of CD69+CD8+ T cells, and the percentage of PD1+CD8+ T cells in tumors (FIG. 35C). […] Without wishing to be bound by theory, a CSF1R inhibitor blocks M2 polarization and may synergize with unshielded RN7SL1.

B16-F10 tumor cells [2] = assay: B16-F10/MEF co-implantation, tumor growth and survival under checkpoint blockade; assay type: in vivo, C57BL/6 mice; conditions: BLZ945 every 2 days for 2 weeks, anti-CTLA4 or anti-CTLA4 and anti-PD1, tumors with unshielded 7SL
Procedure: Wild type (WT) C57BL/6 mice were injected with 5×10^4 B16-F10 tumor cells subcutaneously in the flank with 5×10^4 MYC activated mouse embryonic fibroblasts (MEFs) or MYC activated MEFs co-expressing SRP9/14. MYC activation is inducible with 4-OHT and results in the secretion of exosomes containing unshielded 7SL1 RNA, while co-expression of SRP9/14 ensures the 7SL1 RNA remains relatively shielded, allowing measurement of the stimulatory capacity specifically of the unshielded form (Nabet B Y, et al. Cell. 2017; 170 (2): 352-366.e13). Mice were subsequently treated with the anti-CTLA-4 or anti-PD-1 antibody (or not), and then tumor growth was monitored by caliper. Endpoint criterion was considered a tumor measurement of 1.5 cm in any direction.
Tumors were implanted as described in FIGS. 25A-25B and treated with CSF1R inhibitor BLZ945 (Novartis) every 2 days for 2 weeks starting at day 0 to prevent M2 polarization of infiltrating myeloid cells. Mice were additionally treated with anti-CTLA4 (FIG. 27A) or anti-CTLA4 and anti-PD1 (FIGS. 27B and 27C) on days 5, 8, and 11. Tumor growth was monitored by caliper.

[3] = system: pancreatic ductal adenocarcinoma (PDA) tumor cells; assay: PDA/MEF co-injection, tumor growth under ICB therapy; assay type: in vivo, mice; conditions: BLZ945 with unshielded 7SL RNA, anti-CTLA4 and anti-PD1
Procedure: CSF1R inhibition in combination with unshielded 7SL RNA sensitizes PDA tumors to ICB therapy (FIGS. 28A-28B). 1×10^5 pancreatic ductal adenocarcinoma (PDA) tumor cells were co-injected with 1×10^5 MEFs (“myc-ER”) or MEFs co-expressing SRP9/14 (“myc-ER/SRP”) treated with 4OHT or EtOH. Mice were then treated with a combination of anti-CTLA4 and anti-PD1 antibodies (FIG. 28A) or a triple combination of anti-CTLA4, anti-PD1, and BLZ945 (FIG. 28B) using treatment schedules outlined in the study shown in FIGS. 27A-27C. Tumor growth was monitored by caliper.

recombinant RIG-I = molecular target: T1, recombinant RIG-I; assay: RIG-I ATPase assay (ATP hydrolysis); assay type: biochemical
Procedure: RIG-I ATPase Assays. RIG-I ATPase assays were performed as previously described (Devarkar et al. (2016) Proc. Natl. Acad. Sci. 113, 596-601). In brief, increasing amounts of RNA (10-60 nM) were added to a constant quantity of RIG-I (5 nM) in the presence of 1 mM ATP. ATP hydrolysis was measured with the EnzChek Phosphate Assay Kit (ThermoFisher) after 60-90 minutes at 37° C. ATP hydrolysis was then measured by absorbance of 360 nm compared to background. A 19-mer 5′triphosphate dsRNA (Invivogen) and DVG396 were used as positive controls and a 19-mer 5′OH dsRNA (Invivogen) and an in vitro transcribed 300 bp ssRNA stretch of GAPDH (GAPDH300) were used as negative controls.

| Molecule | activated CD4+ T cells in tumors (B16-F10 tumor cells [1]; anti-CTLA4 +/- CSF1Ri, high unshielded 7SL, 13 days) | frequency of M2 macrophages in the tumor (B16-F10 tumor cells [1]; high levels of unshielded 7SL RNA) | infiltration of cross-presenting CD103+ DCs (B16-F10 tumor cells [1]; high levels of unshielded 7SL RNA, CSF1R inhibition) | response to checkpoint blockade with CSF1R inhibition (B16-F10 tumor cells [2]) | response to checkpoint blockade with CSF1R inhibition (B16-F10 tumor cells [2]; listed as small molecule inhibitor of CSF1R) | sensitization of PDA tumors to ICB therapy [3] | ATP hydrolysis by recombinant RIG-I after addition of SRP9 (recombinant RIG-I; SRP9 added to DVG396 or unrelated 5'ppp or 5'OH control RNAs) | ATP hydrolysis by recombinant RIG-I after addition of SRP9 (recombinant RIG-I; SRP9 added to in vitro transcribed RN7SL1) |
| --- | --- | --- | --- | --- | --- | --- | --- | --- |
| CNC(=O)c1cc(Oc2ccc3nc(N[C@@H]4CCCC[C@H]4O)sc3c2)ccn1 [BLZ945] | markedly increased | decreased the frequency of M2 macrophages found in the tumor | improving the infiltration of cross-presenting CD103+DCs | allows tumors with high levels of unshielded 7SL to respond more robustly to checkpoint blockade; also recorded: enhanced the anti-tumor activity of an anti-PD1 antibody and an anti-CTLA-4 antibody | led to improved response in tumors with high levels of unshielded 7SL1 | sensitizes PDA tumors to anti-PD-1 and anti-CTLA-4 antibody therapies | – | – |
| B1 | – | – | – | – | – | – | did not influence | partially inhibited ATP hydrolysis by recombinant RIG-I |
